In patent EP0403591B1, “CRF ANALOGS” (THE SALK INSTITUTE FOR BIOLOGICAL STUDIES, priority 1988, dated 1994):
Entries after “also recorded” stand apart in the source; their conditions may differ. Non-standard residues stand in square brackets, D forms with d. Residues, ends and D or L forms follow the SMILES beside them. No end group written: not given here. *: point of attachment. Nle = CCCC[C@H](N)C(=O)O; Bz = O=C(c1ccccc1)*

Experiments:
[1] = test system: cultured rat pituitary cells; experiment: Secretion of ACTH and β-endorphin by cultured rat pituitary cells (procedure of Example III); assay type: cell-based; settings: for secretion of ACTH and β-END-LI: testing by the general procedure of Example III (in vitro and in vivo); for EC50: stimulation of secretion of ACTH and β-endorphin by cultured rat pituitary cells, read-out: Half-maximal responses (concentration)
Experimental: The synthetic peptide from Example I and synthetic oCRF are examined for their effects on the secretion of ACTH and β-endorphin in vitro and also in vivo.
The potency of synthetic oCRF to stimulate the secretion of ACTH and β-endorphin by cultured rat pituitary cells is measured using the procedure as generally set forth in Endocrinology, 91, 562 (1972). Half-maximal responses are observed at concentrations of the peptide very substantially less than the synthetic oCRF concentrations of about 250 picomolar which are needed to achieve this response. In vivo testing is carried out using the general procedure set forth in C. Rivier et al., Science, 218, 377 (1982), and biological potency is ascertained.

[2] = Lowering of blood pressure (in vivo testing, general procedure of Example III); settings: testing by the general procedure of Example III
[3] = administered into the ventricles, rats; cited from earlier work
[4] = background statement; cited from earlier work
[5] = background statement; in mammals; cited from earlier work
ACTH and β-endorphin = settings: background statement; in vitro and in vivo; cited from earlier work

| Molecule | secretion of ACTH and β-END-LI [1] | lowering of blood pressure [2] | further results |
| --- | --- | --- | --- |
| SQEPPISLDLTFHLLREVLH[Nle]TKADQLAQQAHSNRKLLDIA-NH2 [XV, [His²⁰, Nle²¹]-oCRF] | stimulates the secretion of ACTH and β-END-LI | very significant lowering of blood pressure |  |
| Bz-GEEPPISLDLT[Nle]HLLREVLHMARAEQLAQQAHSNRRLMEII-NH2 [VI, [Benzoyl-Gly¹, Nle¹², His²⁰, Arg³⁶]-rCRF] | stimulates the secretion of ACTH and β-END-LI | very significant lowering of blood pressure |  |
| CRF: corticotropin releasing factor, species not specified (SEEPPISLDLTFHLLREVLEMARAEQLAQQAHSNRKLMEII; ends and bridges not checked; UniProt P06850 154-194, looked up) |  |  | activity and learning performance [3]: increases activity and improves learning performance |
| SEEPPISLDLTFHLLREVLHRARAEQLAQQALINRKLMEII-NH2 [IX, [His²⁰, Arg²¹, Leu³², Ile³³]-rCRF] | stimulates the secretion of ACTH and β-END-LI | very significant lowering of blood pressure to a greater extent than rCRF |  |
| SQEPPISLDLTFHLLRE[Nle]LH[Nle]AKAEQEAEQAALNRLLLEEA-NH2 [XI] | stimulates the secretion of ACTH and β-END-LI | very significant lowering of blood pressure |  |
| SEEPPISLELTFHLLREVLH[Nle]ARAEQLAEQAHINRKLMEII-NH2 [V, [Glu⁹, His²⁰, Nle²¹, Glu²⁹, Ile³³]-rCRF] | stimulates the secretion of ACTH and β-END-LI | very significant lowering of blood pressure to a greater extent than rCRF |  |
| SEEPPISLDLTFHLLREVLHMARAEGLAQQAHSNRKLMEII-NH2 [IV, [His²⁰, Gly²⁶)-rCRF] | stimulates the secretion of ACTH and β-END-LI | very significant lowering of blood pressure |  |
| SQEPPISLDLTFHMLREMLHRAKMEGEAEQALINRNLLEEA-NH2 [XIII] | stimulates the secretion of ACTH and β-END-LI | very significant lowering of blood pressure |  |
| [D-Pro⁴, His²⁰]-oCRF(4-41) [XVI] | stimulates the secretion of ACTH and β-END-LI | very significant lowering of blood pressure |  |
| SEEPPISLDLTFHLLREVLHMARAEQLAQQAHSNRKLMEII-NH2 [Example I, [His²⁰]-rCRF] |  |  | EC50 [1]: < 0.25 nM |
| SQEPPISLDLTFHLLREVLHMTKADQLAQQAHSNRNLLDIA-NH2 [XIV, [His²⁰, Asn³⁶]-oCRF] | stimulates the secretion of ACTH and β-END-LI | very significant lowering of blood pressure |  |
| CC[C@H](C)[C@H](NC(=O)[C@H](CC(=O)O)NC(=O)[C@H](CC(C)C)NC(=O)[C@H](CC(C)C)NC(=O)[C@H](CCCCN)NC(=O)[C@H](CCCNC(=N)N)NC(=O)[C@H](CC(N)=O)NC(=O)[C@H](CO)NC(=O)[C@H](Cc1c[nH]cn1)NC(=O)[C@H](C)NC(=O)[C@H](CCC(N)=O)NC(=O)[C@H](CCC(N)=O)NC(=O)[C@H](C)NC(=O)[C@H](CC(C)C)NC(=O)[C@H](CCC(N)=O)NC(=O)[C@H](CC(=O)O)NC(=O)[C@H](C)NC(=O)[C@H](CCCCN)NC(=O)[C@@H](NC(=O)[C@H](CCSC)NC(=O)[C@H](CCC(=O)O)NC(=O)[C@H](CC(C)C)NC(=O)[C@@H](NC(=O)[C@H](CCC(=O)O)NC(=O)[C@H](CCCNC(=N)N)NC(=O)[C@H](CC(C)C)NC(=O)[C@H](CC(C)C)NC(=O)[C@H](Cc1c[nH]cn1)NC(=O)[C@H](Cc1ccccc1)NC(=O)[C@@H](NC(=O)[C@H](CC(C)C)NC(=O)[C@H](CC(=O)O)NC(=O)[C@H](CC(C)C)NC(=O)[C@H](CO)NC(=O)[C@@H](NC(=O)[C@@H]1CCCN1C(=O)[C@@H]1CCCN1C(=O)[C@H](CCC(=O)O)NC(=O)[C@H](CCC(N)=O)NC(=O)[C@@H](N)CO)[C@@H](C)CC)[C@@H](C)O)C(C)C)[C@@H](C)O)C(=O)N[C@@H](C)C(N)=O [oCRF, ovine CRF] |  |  | EC50 [1]: ~0.25 nM; gastric acid production [4]: inhibits gastric acid production; lowering blood pressure [5]: biological activity in lowering blood pressure; also recorded: substantially lower blood pressure for an extended time period; secretion of ACTH and β-endorphin (ACTH and β-endorphin): stimulating the secretion of ACTH and β-endorphin; also recorded: stimulate ACTH and β-endorphin activities in vitro and in vivo |
| SEEPPISLDLTFHLLREVLH[Nle]ARAEQLAQQALINRKLMEEI-NH2 [VIII, [His²⁰, Nle²¹, Leu³², Ile³³, Glu⁴⁰]-rCRF] | stimulates the secretion of ACTH and β-END-LI | very significant lowering of blood pressure to a greater extent than rCRF |  |
| Rat CRF (SEEPPISLDLTFHLLREVLEMARAEQLAQQAHSNRKLMEII; ends and bridges not checked; UniProt P01143 145-185, looked up) [rCRF, hentetracontapeptide; formula of human CRF is the same as that of rCRF] |  |  | lowering blood pressure [5]: substantially lower blood pressure for an extended time period; secretion of ACTH and β-endorphin (ACTH and β-endorphin): stimulate ACTH and β-endorphin activities in vitro and in vivo |
| SQ[dY]PPISLDLTFHLLRE[Nle]LH[Nle]AKAGQEAEQAALNRLLLEEA-NH2 [XII] | stimulates the secretion of ACTH and β-END-LI | very significant lowering of blood pressure |  |
| SQEPPISLDLTFHMLREMLHMAKMEQEAEQAALNRLLLEEA-NH2 [XVIII] | stimulates the secretion of ACTH and β-END-LI | very significant lowering of blood pressure |  |
| SQEPPISLDLTFHLLREMLHRAKAEQEAEQAAINRLLLEEA-NH2 [XIX] | stimulates the secretion of ACTH and β-END-LI | very significant lowering of blood pressure |  |
| Sauvagine |  |  | lowering blood pressure [5]: biological activity in lowering blood pressure; secretion of ACTH and β-endorphin (ACTH and β-endorphin): stimulating the secretion of ACTH and β-endorphin |
| Ac-PPISLDLTFHLLREVLHMARAEQLAEQAHSNRNLMEEI-NH2 [VII, [Acetyl-Pro⁴, His²⁰, Glu^29,40, Asn³⁶]-rCRF(4-41)] | stimulates the secretion of ACTH and β-END-LI | very significant lowering of blood pressure to a greater extent than rCRF |  |
| CCCC[C@H](NC(=O)[C@H](Cc1c[nH]cn1)NC(=O)[C@H](CC(C)C)NC(=O)[C@H](CCCC)NC(=O)[C@H](CCC(=O)O)NC(=O)[C@H](CCCNC(=N)N)NC(=O)[C@H](CC(C)C)NC(=O)[C@H](CC(C)C)NC(=O)[C@H](Cc1c[nH]cn1)NC(=O)[C@H](Cc1ccccc1)NC(=O)[C@@H](NC(=O)[C@H](CC(C)C)NC(=O)[C@H](CC(=O)O)NC(=O)[C@H](CC(C)C)NC(=O)[C@H](CO)NC(=O)[C@@H](NC(=O)[C@@H]1CCCN1C(=O)[C@@H]1CCCN1)[C@@H](C)CC)[C@@H](C)O)C(=O)N[C@@H](C)C(=O)N[C@@H](CCCNC(=N)N)C(=O)N[C@@H](C)C(=O)N[C@@H](CCC(=O)O)C(=O)N[C@@H](CCC(N)=O)C(=O)N[C@@H](CCC(=O)O)C(=O)N[C@@H](C)C(=O)N[C@@H](CCC(=O)O)C(=O)N[C@@H](CCC(N)=O)C(=O)N[C@@H](C)C(=O)N[C@@H](CC(C)C)C(=O)N[C@@H](CC(C)C)C(=O)N[C@@H](CC(N)=O)C(=O)N[C@@H](CCCNC(=N)N)C(=O)N[C@@H](CC(N)=O)C(=O)N[C@@H](CC(C)C)C(=O)N[C@@H](CC(C)C)C(=O)N[C@@H](CCC(=O)O)C(=O)N[C@@H](CCC(=O)O)C(=O)N[C@@H](C)C(N)=O [XVII] (H-PPISLDLTFHLLRE[Nle]LH[Nle]ARAEQEAEQALLNRNLLEEA-NH2) | stimulates the secretion of ACTH and β-END-LI | very significant lowering of blood pressure |  |
| SQEPPISLELTFHLLRE[Nle]LHRAKAEQEAEQAALNRLLLEEA-NH2 [X] | stimulates the secretion of ACTH and β-END-LI | very significant lowering of blood pressure |  |
